Assay results taken from patent US7371364B2, “Cyclic peptide and imaging compound compositions and uses for targeted imaging and therapy” (Board of Regents, The University of Texas System, priority 2003, dated 2008).
Positions of bridges follow the written chain, without caps; N, C: chain ends. Cy5.5 = cyanine near-infrared dye Cy5.5, conjugated via its NHS ester to the amino group

Key:
human tumor cells = assay: In vitro tumor cell binding study (fluorescence microscopy); assay type: cell-based
Experimental: All human tumor cell-lines were obtained from American Type Culture Collection (Rockville, Md.) and were maintained at 37° C. in a humidified atmosphere containing 5% CO2 in Dulbecco's Modified Eagle's Medium/Nutrient Mixture F-12 Ham (DMEM/F12) and 10% FBS (Gibco, Grand Island, N.Y.).
Cells were seeded on cover slips in 24-well plates (Becton Dickinson Labware, Franklin Lakes, N.J.) and incubated in DMEM/F12 culture medium (0.5 ml/well) overnight. Cy5.5 and Cy5.5-HWG polypeptide imaging agents were added into each well at the indicated concentrations. For the blocking study, doxycycline was added to the culture medium followed by the addition of Cy5.5-HWG polypeptide imaging agent 1 hour later. After an incubation period of 5-60 minutes at 37° C., cells were washed twice with PBS and incubated in a solution of Sytox Green in 95% ethyl alcohol (1 μM, Molecular Probe, Eugene, Oreg.) for 15 minutes to fix and stain cell nuclei. For staining of MMP expression, cells that were pretreated with Cy5.5-HWG polypeptide and stained with Sytox Green were incubated with anti-MMP antibody (Sigma) (1 mg/ml; 1:200 dilution) for 1 hour at room temperature. The cells were then washed and incubated with Texas Red conjugated go at anti-rabbit IgG (Molecular Probe, 4 μg/ml) at room temperature for 1 hour. Cells were washed again with PBS and the cover slips were mounted for microscopic examination using a DMR microscope (Leica Microsystems, Inc., Brannockburn, Ill.). The microscope was equipped with a 75W Xenon lamp, 775 nm/845 nm, 560 nm/645 nm, and 480 nm/535 nm (Excitation/emission) filters (Chroma Technology Corp., Brattleboro, Vt.), a Hamamatsu B/W Chilled CCD camera (Hamamatsu Photonics K.K., Hamamatsu City, Japan), and Image-Pro Plus 4.5.1 software (Media Cybernetics, Silver Spring, Md.). In the multiple staining images, Cy5.5, MMPs, and Sytox Green were pseudocolored red, green, and blue, respectively.

[1] = test system: intratibia PC-3 prostate tumors; assay: In vivo NIR fluorescent imaging with HWG imaging agent; set-up: species or system mice
Experimental: Four to six week-old athymic nude mice (18-22 g, Harlan Sprague Dawley, Inc., Indianapolis, Ind.) were housed 5 per cage with sterilized pet chow (Harlan Sprague Dawley) and sterilized water. Animals were maintained in a pathogen-free mouse colony in the Department of Veterinary Medicine at the University of Texas M.D. Anderson Cancer Center. All experiments were performed in accordance with the guidelines of the Institutional Animal Care and Use Committee. Tumor cells were harvested near confluence by incubation with 0.05% trypsin-EDTA. Cells were pelleted by centrifugation at 450×g for 5 minutes and resuspended in sterile PBS. Cells (2-3×10^6/animal) were implanted subcutaneously into the chest wall or the hind legs of the mice. Human PC-3 prostate tumors were obtained by intratibia injection of PC-3 cells into male nude mice. Human U87 glioma tumors were obtained by intracranial injection. In vivo fluorescence imaging was accomplished by illuminating the animal with light from a laser diode (785 nm, 80 mW for IGC; 660 nm, 35 mW for Cy 5.5 dyes) expanded to an approximate 8 cm diameter circular area. The re-emitted fluorescent light was collected by an image intensifier (model F[…], ITT Night Vision, Roanoke, Va.) lens-coupled to a CCD camera (model CH350, Photometrics, Tucson, Ariz.). The imaging was designed so that the field of view could be varied from 3×3 cm to over 12×12 cm by varying the image distance of the 50 mm lens used to focus the image onto the photocathode of the intensifier. The lens was fitted with a holographic notch-plus filter (785 nm center wavelength for ICG and 660 nm center wavelength for Cy5.5 dyes; Kaiser Optical Systems, Inc., Ann Arbor, Mich.) and a bandpass filter (830 nm center wavelength for ICG, 710 nm center wavelength for Cy5.5 dyes) to reject back-scattered and reflected excitation photons. Image acquisition was accomplished using V++ software (Digital Optics, Auckland, New Zealand) and obtained images were stored in uncompressed tagged image file format (tiff). […]

KS1767 tumors = assay: as above; set-up: species or system mice; conditions: subcutaneous KS1767 tumors, 15 nmol per mouse
Experimental: (§1) Four to six week-old athymic nude mice (18-22 g, Harlan Sprague Dawley, Inc., Indianapolis, Ind.) were housed 5 per cage with sterilized pet chow (Harlan Sprague Dawley) and sterilized water. Animals were maintained in a pathogen-free mouse colony in the Department of Veterinary Medicine at the University of Texas M.D. Anderson Cancer Center. All experiments were performed in accordance with the guidelines of the Institutional Animal Care and Use Committee. Tumor cells were harvested near confluence by incubation with 0.05% trypsin-EDTA. Cells were pelleted by centrifugation at 450×g for 5 minutes and resuspended in sterile PBS. Cells (2-3×10^6/animal) were implanted subcutaneously into the chest wall or the hind legs of the mice. Human PC-3 prostate tumors were obtained by intratibia injection of PC-3 cells into male nude mice. Human U87 glioma tumors were obtained by intracranial injection.
(§2) In vivo fluorescence imaging was accomplished by illuminating the animal with light from a laser diode (785 nm, 80 mW for IGC; 660 nm, 35 mW for Cy 5.5 dyes) expanded to an approximate 8 cm diameter circular area. The re-emitted fluorescent light was collected by an image intensifier (model FS9910C, ITT Night Vision, Roanoke, Va.) lens-coupled to a CCD camera (model CH350, Photometrics, Tucson, Ariz.). The imaging was designed so that the field of view could be varied from 3×3 cm to over 12×12 cm by varying the image distance of the 50 mm lens used to focus the image onto the photocathode of the intensifier. The lens was fitted with a holographic notch-plus filter (785 nm center wavelength for ICG and 660 nm center wavelength for Cy5.5 dyes; Kaiser Optical Systems, Inc., Ann Arbor, Mich.) and a bandpass filter (830 nm center wavelength for ICG, 710 nm center wavelength for Cy5.5 dyes) to reject back-scattered and reflected excitation photons. Image acquisition was accomplished using V++ software (Digital Optics, Auckland, New Zealand) and obtained images were stored in uncompressed tagged image file format (tiff). Data processing and analysis was accomplished using Matlab software (The Math Works, Inc., Natick, Mass.).

HT1080 tumor = assay: as above; set-up: species or system mice; conditions: subcutaneous HT1080 tumor, 27 hours after i.v. injection, 15 nmol/mouse
Experimental: as §1, §2

SKBr-3 tumors = assay: as above; set-up: species or system mice; conditions: 4 days after i.v. injection, 15 nmol per mouse
Experimental: as §1, §2

MDA-MB-468 tumors = assay: as above; set-up: species or system mice; conditions: subcutaneous MDA-MB-468 tumors, 15 nmol per mouse
Experimental: as §1, §2

human glioma U87 tumor = assay: as above; set-up: species or system mice
Experimental: as §1, §2

**Q.** For “Cy5.5-c(KAHWGFTLD)NH2 ({Cy5.5}-KAHWGFTLD-NH2; lactam 1-9)”, which “Binding to tumor cells” value (human tumor cells; SKBr-3, HT1080, MDA-MB-435, MDA-MB-468, U87 (PC-3 and U87 for the Tyr analogue), 37° C.) is on record?
**A.** Its value is “bound”.

**Q.** What about the “Co-localization with MMPs (MMP-2, MMP-8, MMP-9 staining)” value (human tumor cells; all cell lines tested) of the same substance?
**A.** Its value is “co-localized with MMPs”.

**Q.** And the “Fluorescent signal in contra lateral tibia region preinjected with saline” value ([1]; control leg, i.v. injection of imaging agent)?
**A.** The value was “no fluorescent signal was detected”.

**Q.** What about the “Visualization of small tumor in NIR image” value ([1]; intratibia PC-3, no lesion by X-ray, 3 days after inoculation, 24 and 48 hours after injection) of the same substance?
**A.** The value was “clearly visualized”.

**Q.** What about the “Presence of tumors shown in NIR images (specificity versus scrambled peptide)” value ([1]; intratibia PC-3 inoculated 3 days earlier, images 24 hours after injection) of the same substance?
**A.** Its value is “clearly showed the presence of tumors”.

**Q.** And the “Visualization of tumor in NIR image” value (KS1767 tumors)?
**A.** The value was “clearly visualized”.

**Q.** What about the “Visualization of tumor in NIR image” value (HT1080 tumor) of the same substance?
**A.** Its value is “clearly visualized with minimal background signal”.

**Q.** What about the “Fluorescent signal in tumor” value (SKBr-3 tumors) of the same substance?
**A.** Its value is “strong fluorescent signal”.

**Q.** What about the “Visualization of tumor in NIR image” value (MDA-MB-468 tumors) of the same substance?
**A.** The value was “clearly visualized”.

**Q.** And the “Binding and retention in the tumor (NIR image)” value (human glioma U87 tumor; intracranial U87, tumor 3-4 mm, 12 days after inoculation, 38 hours after injection, intact animal and excised brain)?
**A.** The value was “clearly depicted”.

**Q.** And the “Visualization of small tumor in NIR image” value (human glioma U87 tumor; subcutaneous U87, lesion less than 2 mm, 3 days after inoculation, 24 and 48 hours after injection)?
**A.** The value was “clearly visualized”.
